Data taken from patent publication US9907787B2, “Method of supplementing the diet and ameliorating oxidative stress” (priority 2008, dated 2018).
“And” between values parts separate entries of the source, which are not always exact repeats. Equal values may be shown once. “Also recorded” adds a separate entry of the source.

What was measured:
[1] = water soluble antioxidants and chelators, rapidly cleared by kidneys or liver; cited from earlier work
[2] = tested on: rats; conditions: intraperitoneal; cited from earlier work
[3] = tested on: blood GSH, GSSG; assay: Effect of daily OSR on blood GSH, GSSG levels and GSH/GSSG ratios; type: in vivo, human; conditions: 10 subjects, 200 mg of OSR per day
Description: Effect of daily administration of OSR on key biochemical parameters. […] Also, the major improvement seemed to result from the very significant decrease in oxidized glutathione (GSSG) instead of a total increase in all forms of glutathione. This would be best explained by OSR scavenging hydroxyl free radicals salvaging the GSH by preventing its oxidation to GSSG. This change occurred in 10 of 10 subjects.
All were in reasonable health with no obvious bacterial infections. GSH/GSSG ratios increased in all primarily due to the drop in GSSG levels in all subjects. […] The average tGSH/GSSG ratio almost doubled caused by a near average halving of the GSSG levels.

[4] = tested on: glutathione-S-transferase (GST); assay: Effect of OSR on Glutathione-S-transferase (GST) levels; type: in vivo, human; conditions: for Glutathione-S-transferase (GST) levels: lines = patients 1-10
Description: GST is an enzyme that uses glutathione (GSH) as a substrate to covalently modify certain organic toxins by ‘transferring GSH’ to a P-450 enzyme oxidized site on the toxin. […] GST was non-detectable in all 10 patients at the start of the study and was detectable in all 10 patients at the end of the study. The change in the redox level most likely had something to do with the appearance of this enzyme. It is a common mechanism in cellular regulation that the lowering of a substrate (e.g. glutathione) needed at several locations results in the suppressed expression of the enzyme (e.g. GST) that use this substrate for reactions that are less necessary to support survival. The buildup of GSH most likely induces the expression of GST and this buildup accounts for the induction of new GST synthesis.

[5] = ORAC (oxygen-radical-absorbance-capacity) score; type: biochemical
Protocol: As should be appreciated from the following table, OSR has an exceptionally high ORAC (oxygen-radical-absorbance-capacity) score.
The ORAC score is measured by a compound or elixer's ability to intercept reactive oxygen species, free radicals preventing them from oxidizing a water soluble fluorescent vitamin-E derivative. OSR has the ability in the body to protect vitamin-E (a fat soluble vitamin) and other fat soluble natural compounds such as lipids from damage by oxidizing free radicals since it partitions into the hydrophobic areas where they exist and reacts with free radicals more effectively than they do, thereby scavenging the hydroxyl free radicals and preventing them from doing damage. […] OSR is more capable of reacting with these radicals than vitamin-E and, accordingly, OSR should provide even better protection. In fact, OSR should salvage vitamin E and D in vivo.

[6] = Solubility; type: physicochemical
Description: In fact, the compounds in U.S. Pat. No. 6,586,600 were mostly ineffective at treating environmental contaminations of heavy metal due to their insolubility in water and many organic solvents. The conventional wisdom is that any metal chelator has to be water soluble to be effective is evidenced by the currently known chelators such as dimercapopropane sulfonate (DMPS), dimercaptosuccinic acid (DMSA), ethylenediaminetetraacetic acid (EDTA) and even the natural mammalian heavy metal chelator glutathione. These observations made the use of the compounds questionable for any mammalian based treatment regarding the removal of charged toxic metals like Hg^2+, Pb^2+, and Cd^2+ which are water soluble and would most likely be located in the aqueous aspects of mammalian tissues. Additionally, any compound that is not water soluble nor soluble in most organic solvents would not be expected to pass the intestinal endothelial membrane barrier and enter the blood and tissues of the mammal. Further, the compound(s) would have to cross the cell membrane to be able to interact with and bind the intracellular located heavy metal responsible for the toxic effects. It would also have to be able to cross the blood brain barrier to be effective for any neurotoxic heavy metal effect. […]

[7] = Effect of OSR treatment on essential elements; type: in vivo; conditions: treatment with OSR
Description: (§1) Also, copper and zinc are primarily found in a water environment (hydrophilic aspects) of the body whereas OSR partitions into the hydrophobic aspects. This separation may play a role in the lack of OSR removing copper and zinc. However, in diseases with excess free copper, iron or zinc, OSR is likely to be able to bind and decrease the toxicity of these metals.

[8] = tested on: cysteine, methionine, homocysteine; assay: Effect of OSR on blood sulfur containing amino acid levels; type: in vivo, human; conditions: 10 patients, two month period
Description: To determine if OSR changed the level of cysteine, the rate limiting amino acid in glutathione synthesis, the level of all thiol containing amino acids was done for the same 10 patients for a two month period. […] The homocysteine level was high in patient #9, a person diagnosed with Alzheimer's disease, over the two month testing their levels dropped to near normal levels.
The possible exception was the homocysteine levels in patient #9, a person with Alzheimer's disease.

[9] = Toxicity / LD-50 in test animals; type: in vivo
Description: In fact, OSR is so non-toxic that an LD-50 could not be identified and was established as greater than 5 grams per kilogram body weight.

[10] = tested on: rats injected with mercuric chloride; assay: Protective effects of OSR on rats injected with mercuric chloride; type: in vivo, rat; parameters: key to survival (Alive/Dead): A = Alive; D = Dead; conditions: for survival (Alive/Dead): Rat 1-3
Protocol: Protective effects of OSR on rats injected subcutaneously with mercuric chloride.
Our experiments were designed around this value.
For each of the experiments nine, 5-7 weeks old, rats were chosen. They were divided into three groups and they were fed rat chow and water ad libitum.
The mercuric chloride was dissolved in PBS/DMSO and injected intraperitoneally at time zero.
The compound OSR was dissolved in 0.75 ml DMSO and 0.25 ml PBS. Injection was subcutaneous under the skin covering the stomach. These were done 20 min. after the injection of the mercuric chloride.

[11] = Kinetic study: plasma half-life, tissue distribution and clearance; type: in vivo
Description: The mitochondria, especially if abnormal or damaged by heavy metals or radiation, are the main producers of the free radicals that cause cellular damage to the membranes, proteins or nucleic acids (DNA, RNA). Therefore, OSR is positioned to intercept these free radicals before they do damage and the ORAC scores show us OSR is exceptional at scavenging these toxic chemicals. Thus, OSR operates as an antioxidant in a more efficient and effective level than antioxidants generally known in the art.
It should also be appreciated that OSR is cleared from all tissues tested by over 90% twenty-four hours after ingestion. Therefore, no toxic build-up of OSR occurs in the mammal.
Preferred dosage forms for oral administration include the isolated compounds in powder form. Such powders may be taken up with a swoop and spread onto food or mixed into drinks for easy consumption without bad taste. The pure compounds may be pre-mixed with certain dietary ingredients such as butter, olive oil, corn oil, albumin, whey or other foods which will help in absorption of the compounds by the mere process of dissolving them. Using OSR dissolved in corn oil, it was determined that it takes two hours post ingestion for the maximum level of OSR to show up in the plasma of all tested animals.

[12] = Storage stability; type: physicochemical; conditions: sealed plastic test tubes, sixteen months, room temperature
Description: OSR also has excellent stability when stored in sealed plastic test tubes with less than three percent breakdown occurring at sixteen months of storage at room temperature. Most antioxidants break down very rapidly when exposed to air or water but OSR is exceptional in this regards.

[13] = Affinity for heavy metals; type: binding
Description: as §1

Structure (SMILES): O=C(O)C(S)C(S)C(=O)O (centres unmarked) [DMSA, dimercaptosuccinic acid]
- half-life [1]: less than one to two

Structure (SMILES): [Cl][Hg][Cl] [mercury chloride]
- LD 50 [2]: 3.2 mg/kg body weight

Structure (SMILES): O=C(NCCS)c1cccc(C(=O)NCCS)c1 [OSR, N,N′-bis(2-mercaptoethyl)isophthalamide]
- GSH levels, result in words ([3]; two months): increased slightly in 7 of 10
- redox ratio (GSH/GSSG), result in words ([3]; whole blood, OSR taken regularly, approximately 60 days): significantly increase; also recorded: dramatically improved
- glutathione-S-transferase (GST), result in words ([4]; 10 patients, after OSR treatment): consistently elevated in all 10 patients
- Glutathione-S-transferase (GST) levels ([4]; time 1 month): 0.58 ng/mL and 0.46 ng/mL
- Glutathione-S-transferase (GST) levels ([4]; time 2 months): 0.53 ng/mL and 0.43 ng/mL and 0.37 ng/mL and 0.32 ng/mL and 0.63 ng/mL and 0.48 ng/mL
- ORAC Score [5]: 192,400 μmoleTE/100 g
- lipid solubility [6]: lipid soluble
- lowering of essential elements copper, iron and zinc [7]: does not result in a significant lowering
- changes in cysteine, methionine or homocysteine levels, result in words [8]: No significant consistent changes
- LD-50 [9]: greater than 5 grams per kilogram body weight
- toxicity ([9]; levels up to 5,000 mg per day): without toxicity
- survival (Alive/Dead) ([10]; 0 hr, mercury chloride 2 mg/kg body weight, OSR 0.5 millimoles/kg subcutaneous 20 min after): A
- survival (Alive/Dead) ([10]; 0 hr, mercury chloride 14 mg/kg body weight, OSR 1 mM/kg body weight subcutaneous 20 min after): A
- survival (Alive/Dead) ([10]; 1 week, mercury chloride 2 mg/kg body weight, OSR 0.5 millimoles/kg subcutaneous 20 min after): A
- survival (Alive/Dead) ([10]; 1 week, mercury chloride 14 mg/kg body weight, OSR 1 mM/kg body weight subcutaneous 20 min after): A
- survival (Alive/Dead) ([10]; 6 hr, mercury chloride 2 mg/kg body weight, OSR 0.5 millimoles/kg subcutaneous 20 min after): A
- survival (Alive/Dead) ([10]; 6 hr, mercury chloride 14 mg/kg body weight, OSR 1 mM/kg body weight subcutaneous 20 min after): A
- survival (Alive/Dead) ([10]; 12 hr, mercury chloride 2 mg/kg body weight, OSR 0.5 millimoles/kg subcutaneous 20 min after): A
- survival (Alive/Dead) ([10]; 12 hr, mercury chloride 14 mg/kg body weight, OSR 1 mM/kg body weight subcutaneous 20 min after): A
- survival (Alive/Dead) ([10]; 24 hr, mercury chloride 2 mg/kg body weight, OSR 0.5 millimoles/kg subcutaneous 20 min after): A
- survival (Alive/Dead) ([10]; 24 hr, mercury chloride 14 mg/kg body weight, OSR 1 mM/kg body weight subcutaneous 20 min after): A
- survival (Alive/Dead) ([10]; 48 hr, mercury chloride 2 mg/kg body weight, OSR 0.5 millimoles/kg subcutaneous 20 min after): A
- survival (Alive/Dead) ([10]; 48 hr, mercury chloride 14 mg/kg body weight, OSR 1 mM/kg body weight subcutaneous 20 min after): D and A
- protection from mercury induced toxic effects (blood in urine and feces, death, weight loss, ataxia) ([10]; rats given 0.6 lethal dose of mercury chloride, 10-fold excess of OSR twenty-thirty minutes later): protected from mercury induced toxic effects
- excretion route of OSR bound mercury ([10]; rats given mercury chloride and OSR): primarily excreted through the fecal route
- protection from death ([10]; rats injected with 1-5 levels (or higher) of lethal doses of mercury chloride, single 10-fold excess of OSR dissolved in DMSO): protected from death
- OSR levels relative to peak values seen at hour 2 ([11]; 24 hours post-ingestion, OSR dissolved in corn oil): 4-12%
- time post ingestion for the maximum level of OSR in plasma ([11]; OSR dissolved in corn oil, all tested animals): two
- blood brain barrier / tissue entry ([11]; kinetic study, all tissues tested): crosses the blood brain barrier
- half-life in plasma ([11]; plasma of test animals): about six to seven
- cleared from all tissues tested ([11]; twenty-four hours after ingestion): over 90%
- breakdown on storage [12]: less than three
- affinity for mercury, lead, arsenic and cadmium [13]: exceptionally high affinity

Structure (SMILES): Oc1ccc(C=Cc2cc(O)cc(O)c2)cc1 [resveratrol]
- half-life [1]: less than one to two

Structure (SMILES): N[C@@H](CCC(=O)N[C@@H](CS)C(=O)NCC(=O)O)C(=O)O [glutathione]
- half-life [1]: less than one to two

Structure (SMILES): O=S(=O)(O)CC(S)CS (centres unmarked) [DMPS, dimercaptopropane sulfonate]
- half-life [1]: less than one to two
